Common to all, as to assay type: cell-based
Assay [1] has as its system human multiple myeloma MM1S cells. The experiment in a line: Cytotoxicity of combination with Velcade in MM1S cells (CellTiter Glo). Conditions: for α/a+β/b (synergism if <1): combination with Velcade, three days; for combined effect with Velcade versus Bliss additive effect: compound 0.1 or 0.2 M (so in the source), 1 and 1.5 nM Velcade, FIGS. 8 and 9. On the procedure:
Human multiple myeloma MM1S cells were plated at a density of 10,000 cells/well in 96-well plates in 90 μl growth medium containing 10% FCS, 100 units/ml penicillin and 100 μg/ml streptomycin. Velcade® (i.e. bortezomib or PS-341) was obtained from LC Laboratories. Compounds 3 and 5 were added a day later in 5 μl of 0.7% 2-hydroxypropyl-β-cyclodextrin in DDW to the multiple myeloma cell plates to obtain final concentrations of […]. Velcade® was added in 5 μl of 1% DMSO to obtain final concentrations of 0, 0.5, 1 and 1.5 nM. Three days later CellTiter Glo reagent (100 μl/well) was added to the medium (1:1), shaked, and following 10 min incubation transferred to 96-well white plates and read in a Luminometer. The data was analyzed in Microsoft Excel, using the vehicle control as 0% cytotoxicity. The assays were performed in triplicates. Cytotoxicity (%) was calculated as follows: [(absorbance of control cells—absorbance of drug-treated cells)/absorbance of control cells]×100. In FIGS. 8 and 9 the Bliss additivism model (Cardone et al. Science (1998), 282: 1318-1321) was used to calculate the combined effect using the following formula: Ebliss=EA+EB−EA×EB, where EA and EB are the fractional inhibitions obtained by drug A alone and drug B alone at specific concentrations. […] The synergic effect was calculated in an additional method in which the existence of α/a+β/b<1 was tested (a is the IC50 of drug A in the absence of drug B, α is the IC50 of drug A in the presence of drug B, b is the IC50 of drug B in the absence of drug A, β is the IC50 of drug B in the presence of drug A).

For assay [2], the system named is human lymphoma KARPAS cells. Briefly: Cell proliferation, KARPAS (Example 4). The following applies: compound in 2-hydroxypropyl-β-cyclodextrin. The method, then: (§1) Human ovary cancer A2780 cells lines were seeded at a density of 5000 cells/well, human melanoma A375 cells were plated at a density of 2,500 cells/well, human colon carcinoma HCT15 cells were plated at a density of 3,000 cells/well, human prostate carcinoma PC3 cells were plated at a density of 1,500 cells/well, human breast carcinoma MCF7 cells were plated at a density of 5,000 cells/well, human breast carcinoma MDA MB 468 cells were plated at a density of 6,000 cells/well, human myeloma U266, RPMI8226 and CAG cells were plated at a density of 10,000 cells/well. All cells were plated in 96-well plates in 90 μl growth medium containing 10% FCS, 100 units/ml penicillin and 100 μg/ml streptomycin. Compound 3 was added a day later in […] of 1% DMSO in DDW to obtain final concentrations of 0, 0.1, 0.3, 1, 3, and 10 μM. The final concentration of DMSO (0.1% DMSO) was kept constant in all samples. Following exposure of the cells to compound 3 for 72 hours at 37° C., adhered cells were fixed in 0.5% gluteraldehyde in medium for 10 min, washed three times with DDW, once with 0.1M sodium borate buffer pH 8.5 and stained with 1% methylene blue dissolved in 0.1M borate buffer solution for 60 min. Excess dye was washed out and cell-bound dye was eluted with 200 μl/well of 0.1M HCl. The optical density values were read at 630 nm in ELISA plate reader. Non-adhered cells were exposed to WST-1 reagent for 5 hours following 72 hours treatment with the inhibitors, and optical density values were read at 630 nm in ELISA plate reader. The data was analyzed in Microsoft Excel, using the vehicle control as 100% proliferation. The assays were performed in triplicates. The values of IC50 were derived from the dose-dependent growth curves obtained.
(§2) Cell proliferation assay was performed as described in Example 2. […]

For assay [3], the system named is human gastric cancer NCI-N87 cells. The experiment in a line: Cell proliferation, NCI-N87 (Example 4). The following applies: compound in 2-hydroxypropyl-β-cyclodextrin. On the procedure: as §1, §2
Assay [4] has as its system human prostate carcinoma DU145 cells. The experiment in a line: Cell proliferation, DU145 (Example 4). Conditions: DU-145, DU145, prostate cancer, compound in 2-hydroxypropyl-β-cyclodextrin. The method, then: as §1, §2
Assay [5] concerns human leukemia K562 cells. Briefly: Cell proliferation, K562 (Example 4). The following applies: compound in 2-hydroxypropyl-β-cyclodextrin. The method, then: as §1
(§3) Cell proliferation assay was performed as described in Example 2. The following cell line were plated in 96-well plates in 90 μl growth medium containing 10% FCS, 100 units/ml penicillin and 100 μg/ml streptomycin: human ovary cancer A2780 cells (4500 cells/well), human melanoma A375 (1500 cells/well) and YUMAC (2500 cells/well) cells, human colon carcinoma HCT15 (3000 cells/well) and HCT116 (2000 cells/well) cells, human prostate carcinoma PC3 (3000 cells/well), PC3MM2 (3500 cells/well) and DU145 (300 cells/well) cells, human hepatocarcinoma HepG2 (3000 cells/well), human Ewing sarcoma SK-ES-1 (4,500 cells/well), human glioblastoma U138MG (2,000 cells/well), human breast cancer T47D (4000 cells/well) and MDA-MB-468 (6000 cells/well) cells, human small cell lung carcinoma NCI-H1975 (5000 cells/well) cells, human osteosarcoma Saos-2 (5000 cells/well) cells, human pancreatic cancer ASPC (2500 cells/well) cells, human bladder carcinoma T24P (1000 cells/well) cells, human gastric cancer NCI-N87 (5000 cells/well) cells, human lymphoma KARPAS (5,000 cells/well) cells, human leukemia K562 (5,000 cells/well) cells and human multiple myeloma MM1S (10,000 cells/well), U266 (10,000 cells/well) and CAG (5,000 cells/well). Compounds 2-5 and 7-8 were added a day later in 10 μl of 0.7% 2-hydroxypropyl-β-cyclodextrin to obtain final concentrations of 0, 0.1, 0.3, 1, 3 and 10 μM.
Compounds 2-5 and 7-8 of the present invention were tested for their inhibitory potential in cell proliferation assay. […]

Assay [6] relates to human Ewing sarcoma SK-ES-1 cells. The experiment in a line: Cell proliferation, SK-ES-1 (Example 4). The following applies: SK-ES1, SK-ES-1, Ewing sarcoma, compound in 2-hydroxypropyl-β-cyclodextrin. On the procedure: as §1, §2
Assay [7] concerns human hepatocarcinoma HepG2 cells. The experiment in a line: Cell proliferation, HepG2 (Example 4). The following applies: compound in 2-hydroxypropyl-β-cyclodextrin. The method, then:
as §1, §2

For assay [8], the system named is human multiple myeloma MM1S cells. The experiment in a line: Cell proliferation, MM1S (Example 4). Conditions: MM1.S, compound in 2-hydroxypropyl-β-cyclodextrin. The method, then: as §1, §3
Compounds 2-5 and 7-8 of the present invention were tested for their inhibitory potential in cell proliferation assay. Human ovary cancer A2780 cells, human melanoma A375 and YUMAC cells, human colon carcinoma HCT15 and HCT116 cells, human prostate carcinoma PC3, PC3MM2 and DU145 cells, human hepatocarcinoma HepG2 cells, human Ewing sarcoma SK-ES-1 cells, human glioblastoma U138MG cells, human breast cancer T47D and MDA-MB-468 cells, human small cell lung carcinoma NCI-H1975 cells, human osteosarcoma Saos-2 cells, human pancreatic cancer ASPC cells, human bladder cancer T24P cells, human gastric cancer cells, human lymphoma KARPAS cells, human leukemia K562 cells, and human multiple myeloma MM1S, CAG and U266 cells, were exposed to increasing concentrations of compounds 2-5 and 7-8. […]

Assay [9] deals with human bladder carcinoma T24P cells. The experiment in a line: Cell proliferation, T24P (Example 4). The following applies: compound in 2-hydroxypropyl-β-cyclodextrin. The method, then:
as §1, §2

The structures appear in SMILES notation. pIC50: −log10 of the molar value.

As a reminder, the pIC50 is −log10 of the IC50, conventionally taken in molar units. High values mean a small IC50, low ones a large IC50.

Consider `O=c1c(O)cc2cnc(/C=C/c3cc(O)c(O)c(Br)c3)sc-2c1O` [Compound 3], for which, in assay [1], the “α/a+β/b (synergism if <1)” value was found to be 0.7. Moreover, the “combined effect with Velcade versus Bliss additive effect” value in [1] is “strong synergistic effect”. The pIC50 in assay [2] is 6.30; in assay [3] it was 5.35; in [4], 5.64; in assay [5], 6.30; in assay [6] it was 6.52; in assay [7], 6.05. In addition, the negative logarithm of the IC50 (pIC50) in assay [8] is 6.30; in assay [9], 5.22.

Take `O=c1c(O)cc2cnc(/C=C/c3ccc(O)c(O)c3Br)sc-2c1O` [Compound 5]: the “α/a+β/b (synergism if <1)” value in assay [1] is listed as 0.6. Also, the “combined effect with Velcade versus Bliss additive effect” value in assay [1] was “strong synergistic effect”. Besides, the negative logarithm of the IC50 (pIC50) in assay [2] is 6.05; in assay [3], 5.40; in assay [4], 5.57; in [5] it was 6.30; in assay [6], 6.22; in [7] it was 5.80. Further, the negative-log IC50 (pIC50) in assay [8] is 6.22; in assay [9] it was 5.19.

(Values after patent publication US9073880B2, “2-(2-phenylethenyl) 1,3-benzodiazepine derivatives useful for the treatment of cancer” (Yissum Research Development Company of the Hebrew …, priority 2010, dated 2015).)
